1 compound from patent US12685733B2, “Indole molecules and use thereof in the inhibition of DNA polymerases” (BioVentures, LLC, priority 2019, dated 2026) can be followed below.

The target of one test is T1, hpol ι (Homo sapiens, UniProt Q9UNA4).
T1 construct: hpol ι (residues 1-446); made in house
T1 sequence (Q9UNA4 1-446): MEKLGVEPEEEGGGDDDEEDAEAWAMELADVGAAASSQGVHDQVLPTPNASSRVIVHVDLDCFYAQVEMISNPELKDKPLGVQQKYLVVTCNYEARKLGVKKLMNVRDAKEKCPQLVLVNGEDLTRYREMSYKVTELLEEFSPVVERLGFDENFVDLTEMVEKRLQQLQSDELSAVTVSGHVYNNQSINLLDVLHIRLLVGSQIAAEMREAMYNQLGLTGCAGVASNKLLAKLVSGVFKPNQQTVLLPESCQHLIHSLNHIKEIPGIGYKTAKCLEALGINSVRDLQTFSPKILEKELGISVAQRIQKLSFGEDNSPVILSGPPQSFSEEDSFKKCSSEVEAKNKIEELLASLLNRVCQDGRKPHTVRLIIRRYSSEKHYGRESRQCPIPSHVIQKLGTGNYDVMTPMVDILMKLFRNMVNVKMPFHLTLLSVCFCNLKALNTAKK
Briefly: Gel-based primer extension assay. In kind it is biochemical. The conditions noted are these: 10 μM; 10 nM hpol ι.

In another test the target is T2, hRev1 (Homo sapiens, UniProt Q9UBZ9).
T2 construct: hRevl (residues 330-833); made in house
T2 sequence (Q9UBZ9 330-833): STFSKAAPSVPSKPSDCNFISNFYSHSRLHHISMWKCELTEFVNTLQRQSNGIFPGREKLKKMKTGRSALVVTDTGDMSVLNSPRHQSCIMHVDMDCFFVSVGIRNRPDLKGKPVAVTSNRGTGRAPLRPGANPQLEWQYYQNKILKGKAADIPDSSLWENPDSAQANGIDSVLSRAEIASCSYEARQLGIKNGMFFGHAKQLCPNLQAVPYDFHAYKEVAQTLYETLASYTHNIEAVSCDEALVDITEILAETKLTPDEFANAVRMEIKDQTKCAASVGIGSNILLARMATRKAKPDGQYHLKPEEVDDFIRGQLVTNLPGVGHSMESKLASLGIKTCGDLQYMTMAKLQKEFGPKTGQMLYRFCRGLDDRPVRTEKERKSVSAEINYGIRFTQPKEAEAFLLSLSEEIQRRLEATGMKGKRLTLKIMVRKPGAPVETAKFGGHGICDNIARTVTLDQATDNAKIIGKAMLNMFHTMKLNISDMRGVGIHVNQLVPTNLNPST
In words: Gel-based primer extension assay. In kind it is biochemical. The following applies: 10 μM; 10 nM Rev1.

Another test addresses T3, Dpo1 (Saccharolobus solfataricus, UniProt P26811).
T3 construct: made in house
T3 sequence (P26811 1-882): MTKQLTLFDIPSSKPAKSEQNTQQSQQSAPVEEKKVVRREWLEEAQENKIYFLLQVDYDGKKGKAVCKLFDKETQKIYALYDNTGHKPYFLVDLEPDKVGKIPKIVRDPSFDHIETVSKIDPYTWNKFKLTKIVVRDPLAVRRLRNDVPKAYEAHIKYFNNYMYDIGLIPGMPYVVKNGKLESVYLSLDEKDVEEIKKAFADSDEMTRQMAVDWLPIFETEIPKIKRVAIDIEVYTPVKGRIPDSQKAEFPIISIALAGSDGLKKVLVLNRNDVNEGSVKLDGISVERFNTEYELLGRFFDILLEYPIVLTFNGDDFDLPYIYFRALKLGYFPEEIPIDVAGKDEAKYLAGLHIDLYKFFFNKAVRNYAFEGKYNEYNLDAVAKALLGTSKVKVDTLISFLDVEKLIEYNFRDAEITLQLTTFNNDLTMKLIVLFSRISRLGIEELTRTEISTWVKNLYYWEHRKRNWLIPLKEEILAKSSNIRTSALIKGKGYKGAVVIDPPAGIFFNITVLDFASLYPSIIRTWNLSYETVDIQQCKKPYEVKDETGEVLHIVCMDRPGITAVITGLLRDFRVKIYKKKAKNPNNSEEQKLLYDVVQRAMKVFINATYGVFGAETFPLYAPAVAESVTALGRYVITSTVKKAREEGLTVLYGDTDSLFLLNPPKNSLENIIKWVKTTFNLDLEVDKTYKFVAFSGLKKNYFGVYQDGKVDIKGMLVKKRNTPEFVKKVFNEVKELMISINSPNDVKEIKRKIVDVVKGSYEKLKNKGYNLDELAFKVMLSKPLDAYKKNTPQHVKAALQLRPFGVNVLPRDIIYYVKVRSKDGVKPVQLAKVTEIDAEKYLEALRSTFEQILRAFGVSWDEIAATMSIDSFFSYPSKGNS
Briefly: Fluorescence-based polymerase assay, other pol families. The test is classed as biochemical, Sulfolobus solfataricus. The conditions noted are these: 10 μM; 25 nM Dpo1 (B-family).

A further test deals with T4, hpol β (Homo sapiens, UniProt P06746).
T4 construct: gift of Dr. Samuel Wilson (NIEHS)
Described as above. In kind it is biochemical. The following applies: 10 μM; 1 nM hpol β (X-family).

Another test relates to T98G spheroids. In words: Spheroid growth rate assay. In kind it is cell-based. The conditions noted are these: 50 nM or 500 nM, with or without TMZ, 12 days. As to the method:
Cell, spheroid and organoid culture. Grade IV glioma cells (T98G) were obtained from the American Type Culture Collection (ATCC). MCF7 cells were a kind gift from Dr. Timothy Chambers (UAMS). The POLKKO T98G cell lines were generated using CRISPR-Cas9 and validated by immunoblotting (data not shown). For normal culture, these cells were grown in minimum essential media (MEM) containing 10% fetal bovine serum (FBS), 1% (v/v) antibiotic/[…] and incubated at 37° C. in 5% CO2.
For spheroid culture, 24 h prior to plating cells, dishes were coated in 1× poly-HEMA (0.6 g poly-2-hydroxyethyl methacrylate into 50 mL 95% EtOH) under sterile conditions and allowed to dry overnight. Coated dishes were hydrated in 1×PBS for 20 min prior to plating. Spheroids were cultured in NeuroCult NS-A basal medium containing NeuroCult NS-A proliferation supplement, 20 ng/mL human recombinant epidermal growth factor (EGF), 10 ng/mL human recombinant basic fibroblast growth factor (bFGF), and 0.0002% heparin (referred to as NS-A complete medium). […]
Spheroid growth rate assay. […] Spheroids with a diameter of 50 µm or larger were counted as true spheroids and an average size was determined for each well. Changes in average size for each well over the growth time was recorded and used to generate the growth rate. […]

Test [1] has as its system hpol κ-deficient HAP-1 cells. In words: supF mutagenesis assay. The conditions noted are these: 1 μM IAG-10, 24 h.
Method: HAP-1 hpol κ-proficient and hpol κ-deficient cells were cultured in 10 cm dishes to ~80% confluency in Iscove's modified Dulbecco's medium (Invitrogen) containing 10% (v/v) FBS supplemented with Ix antibiotic antimycotic solution (Sigma). They were transfected with unmodified (control) and methylmethanesulfonate (MMS)-modified pSP189 plasmid harboring the supF gene either in the absence or presence of 1 μM IAG-10. For plasmid modification with MMS, the pSP189 plasmid was first incubated with 100 mM MMS in 10 mM HEPES buffer (pH 7.5) containing 50 mM KCl, 5 mM MgCl2, and 1 mM dithiothreitol at RT for 1 h. The MMS-modified plasmid was then purified by ethanol precipitation and used in subsequent transfections, similar to the unmodified plasmid. […] The recovered plasmids (75-100 ng) were then transformed into E. coli MBM7070 strain by electroporation, and the transformed bacterial cells were plated on LB-agar plates containing 100 μg/mL ampicillin, 1 mM isopropyl-I-thio-fi-Dgalactopyranoside (IPTG) and 100 μg/mL X-gaL The resulting blue (nonmutated) and white (mutated) colonies were counted. The mutation frequency was calculated as the ratio of mutant (white) colonies to total (blue+white) colonies. At least 10 000 colonies were counted for each condition, and the results reported represent the mean (±SD) of experiments performed in biological triplicate.

On to `Cl.[H]/N=C(\N)NN=Cc1cn(C(=O)c2cccc3ccccc23)c2ccc(Cl)cc12` [IAG-10, (E)-2-((1-(1-naphthoyl)-5-chloro-1H-indol-3-y1)methylene)hydrazine-1-carboximidamide hydrochloride], for which the “polymerase activity relative to DMSO control” value was “only hpol κ was inhibited” on hpol ι, “only hpol κ was inhibited” on hRev1, “only hpol κ activity was inhibited” on Dpo1 and “only hpol κ activity was inhibited” at hpol β. In the test with T98G spheroids, the “glioma spheroid growth rate” value was “inhibits glioma spheroid growth rate on its own and also enhances the effects of TMZ”. In addition, the “mutation frequency for control or MMS-damaged DNA” value in test [1] is listed as “did not alter the mutation frequency”.
